{"source": "ChEMBL document CHEMBL1150756", "about": "“Isolation of an anti-inflammatory principle from the fruit juice of Ecballium elaterium” (J Nat Prod, 1988)", "key": {"Mus musculus": {"system": "Mus musculus", "assay": "Antiinflammatory activity in po dosed dd mouse assessed as inhibition of acetic acid-induced vascular permeability administered 30 mins before acetic acid challenge measured after 20 mins", "format": "functional"}, "[1]": {"assay": "Toxicity in po dosed dd mouse", "format": "organism-based", "conditions": "in vivo"}}}
{"smiles": "CC(=O)OC(C)(C)/C=C/C(=O)[C@](C)(O)[C@H]1[C@H](O)C[C@@]2(C)[C@@H]3CC=C4[C@H](C[C@H](O)C(=O)C4(C)C)[C@]3(C)C(=O)C[C@]12C", "note": "[CUCURBITACIN B]", "values": [{"measurement": "ED50", "setting": "Mus musculus", "result": 6.1, "unit": "mg/kg"}]}
{"smiles": "CC(=O)OC(C)(C)/C=C/C(=O)[C@](C)(O)[C@H]1[C@H](O)C[C@@]2(C)[C@@H]3CC=C4[C@@H](C[C@H](O)C(=O)C4(C)C)[C@]3(C)C(=O)C[C@]12C", "note": "[CUCURBITACIN B]", "values": [{"measurement": "LD50", "setting": "[1]", "result": 10.9, "unit": "mg/kg"}]}
